“Also recorded” adds a separate entry of the source. Where two headings read alike, the source gives them in different places.
Legend:
PARG = PARG (Bos taurus, UniProt O02776); assay: Inhibition of PARG activity in vitro (quantitation of free ADP-ribose with benzamidine, fluorescence); assay type: biochemical; parameters: purchased Biomol
Protocol: PARG assay: Production and purification of PAR. PARP-1 (20 units) is added to 900 μL of PARP assay buffer containing 1 mM NAD^+ and 22.5 μg activated DNA. This reaction was run at 37° C. for 30 min and stopped by the addition of 300 μL of cold 100% trichloroacetic acid. The proteins thus precipitated are collected by centrifugation at 18,000 g for 30 min at 4° C. After removal of the supernatant, 1 mL of 1 M NaOH and 100 mM EDTA are added to the pellet and incubated for 2 h at 37° C. to cleave the PAR from the PARP protein acceptor. Then 9 mL of PAR buffer A (250 mM ammonium acetate, 6 M guanidinium HCl, 10 mM EDTA, pH 9.0) is added to the PAR and applied to a PROSEP-PB (Millipore) phenyl boronate column that is pre-equilibrated with PAR buffer A. The flowthrough is then reapplied to the column to ensure that all PAR is bound. The column is then washed with 25 mL of PAR buffer A, followed by 10 mL of PAR buffer B (1 M ammonium acetate and 1 mM EDTA, pH 9.0). The bound PAR is eluted with 4 mL of water collected in 1-mL fractions. Fractions containing PAR are pooled and concentrated. The concentration, measured as monomer, is determined by measuring the absorbance at 258 nm. PAR has an extinction coefficient of 13,500 cm^−1 at 258 nm.
Inhibition of PARG Activity: To determine the PARG IC50 values of the compounds, 39 μL of a 25.6 μM solution of PAR in PARG assay (50 mM KCl, 50 mM KH2PO4, pH 7.2) buffer and 1 μL of the compounds at varying concentrations (in PARG assay buffer) are added into the wells of a 384-well plate. The reaction is initiated by the addition of 10 μL of PARG (Biomol) at a concentration of 1 ng/ml (in PARG assay buffer), bringing the final concentration to […] and 20 μM PAR with varying concentrations of compounds in a total volume of 50 μL. The plate is incubated for 20 min at room temperature. The amount of free ADP-ribose hemiacetals is determined by the addition of 5 μL of an aqueous 8.5M KOH solution and 5 μL of an aqueous 850 μM benzamidine solution to each well. The plate is then incubated for 10 min in an oven set at 110° C. The plate is allowed to cool and then read on a Criterion Analyst AD with an excitation of 360 nm and an emission of 445 nm.

[1] = test system: neuronally differentiated SK-N-SH cells; assay: Protection from rotenone induced toxicity in neuronally differentiated SK-N-SH cells; assay type: cell-based; conditions: Homo sapiens, 10 μM rotenone
Protocol: In vivo MPTP is metabolized to its active form, the 1-methyl-4-phenylpyridinium ion (MPP^+), and MPP^+ has proven very useful in a variety of cell culture models of PD. To determine the protective effect of PIP-1 on cells subjected to MPP^+ insult, PC-12 (differentiated as above) and SK-N-SH (differentiated with retinoic acid for 12 days) cells are treated with 10 μM MPP^+ and a range of PIP-1 concentrations, and cell death is assessed by propidium iodide staining and flow cytometry. […] As shown in FIGS. 20A and 20B, PIP-1 also protects differentiated PC-12 and SK-N-SH cells from rotenone-induced toxicity as well.
Cell culture conditions: HL-60 and SK-N-SH cells are grown in RPMI 1640 media supplemented with 10% FBS and PC-12 cells are grown in RPMI 1640 media supplemented with 10% HS and 5% FBS. All cell lines are incubated at 37° C. in a 5% CO2, 95% air atmosphere. HL-60 cells are split every two to three days as needed and SK-N-SH cells are split when they reach approximately 90% confluency at a 1:6 ratio. […]
Protection of Rotenone and MPP^+ induced toxicity in PC-12 and SK-N-SH cells: SK-N-SH and PC-12 cells are neuronally differentiated as described above. […] The cells are then washed in PBS and the viability is determined by adding propidium iodide to 1 μg/mL and measuring the fluorescent intensity of each cell by flow cytometry.

[2] = test system: neuronally differentiated PC-12 cells; assay: Protection from rotenone induced toxicity in neuronally differentiated PC-12 cells; assay type: cell-based
Protocol: Rotenone is a complex I poison and is widely used in cell culture and animal models of PD. (20, 31, 32) To determine if PIP-1 protects cells from rotenone insult, PC-12 cells are neuronally differentiated (with neuronal growth factor β for 10 days) and then treated with 10 μM rotenone and a range of PIP-1 concentrations. After 72 hours, cell death is assessed using propidium iodide staining as measured by flow cytometry. […] To determine the features on PIP-1 that are important for PARG inhibition and cell protection, three derivatives are constructed that lacked key functionality (see FIG. 19 compounds labeled 3, 4 and 5).
Cell culture conditions: HL-60 and SK-N-SH cells are grown in RPMI 1640 media supplemented with 10% FBS and PC-12 cells are grown in RPMI 1640 media supplemented with 10% HS and 5% FBS. All cell lines are incubated at 37° C. in a 5% CO2, 95% air atmosphere. HL-60 cells are split every two to three days as needed and SK-N-SH cells are split when they reach approximately 90% confluency at a 1:6 ratio. SK-N-SH cells are differentiated by adding media containing 10 μM retinoic acid (in DMSO). Media is replaced every other day and cells are differentiated for a total of 12 days. PC-12 cells are differentiated by adding media containing 25 ng/mL Neuronal Growth Factro β. Media is replaced every other day and cells are differentiated for a total of 10 days. Differentiation is observed by microscopy.
Protection of Rotenone and MPP^+ induced toxicity in PC-12 and SK-N-SH cells: SK-N-SH and PC-12 cells are neuronally differentiated as described above. 10 μM rotenone, 10 μM MPP^+ and various concentrations of PIP-1 or its derivatives are added to the cells and incubated for 72 h. The cells are then washed in PBS and the viability is determined by adding propidium iodide to 1 μg/mL and measuring the fluorescent intensity of each cell by flow cytometry.

PARG, sequence (O02776 whole entry): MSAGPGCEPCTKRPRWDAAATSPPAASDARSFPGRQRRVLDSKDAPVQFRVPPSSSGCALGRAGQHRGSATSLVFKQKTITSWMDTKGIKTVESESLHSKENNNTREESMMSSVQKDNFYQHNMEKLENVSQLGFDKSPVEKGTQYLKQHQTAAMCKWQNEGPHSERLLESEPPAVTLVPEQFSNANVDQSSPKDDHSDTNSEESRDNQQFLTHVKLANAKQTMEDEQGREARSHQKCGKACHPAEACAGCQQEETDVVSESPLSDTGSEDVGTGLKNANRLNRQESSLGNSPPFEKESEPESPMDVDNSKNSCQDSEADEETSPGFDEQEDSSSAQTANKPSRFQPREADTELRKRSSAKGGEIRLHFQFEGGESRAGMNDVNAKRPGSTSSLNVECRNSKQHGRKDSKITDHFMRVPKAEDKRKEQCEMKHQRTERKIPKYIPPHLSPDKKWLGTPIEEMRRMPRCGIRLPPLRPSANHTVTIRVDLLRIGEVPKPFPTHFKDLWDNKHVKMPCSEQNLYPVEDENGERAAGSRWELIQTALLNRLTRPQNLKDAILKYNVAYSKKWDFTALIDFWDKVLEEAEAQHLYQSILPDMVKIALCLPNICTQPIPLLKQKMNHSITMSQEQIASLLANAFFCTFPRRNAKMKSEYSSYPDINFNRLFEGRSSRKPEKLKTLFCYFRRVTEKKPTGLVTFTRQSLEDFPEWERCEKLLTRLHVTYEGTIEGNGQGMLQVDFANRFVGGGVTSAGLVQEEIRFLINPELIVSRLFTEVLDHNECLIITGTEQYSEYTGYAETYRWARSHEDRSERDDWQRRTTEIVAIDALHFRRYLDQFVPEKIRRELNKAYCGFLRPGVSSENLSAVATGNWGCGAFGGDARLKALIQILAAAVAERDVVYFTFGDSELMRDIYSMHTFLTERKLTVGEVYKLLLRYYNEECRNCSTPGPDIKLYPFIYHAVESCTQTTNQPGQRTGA

SMILES | IC50 (PARG) [nM] | PARG inhibition in vitro (in words) (PARG) | EC50 [1] [nM] | Protection of rotenone-treated neuronally differentiated PC-12 cells (in words) [2] | EC50 ([2]; Rattus norvegicus, differentiated PC-12 cells, 10 μM rotenone, 72 h, read-out: EC50 (IC50) for protection from rotenone induced toxicity) [nM] | PARG inhibition in vitro (in words) (PARG; listed as analogue 5) | Protection of rotenone-treated neuronally differentiated PC-12 cells (in words) ([2]; listed as analogue 5)
CN(C)c1cnn(-c2ccccc2)c(=O)c1N [PIP-1, 4-Amino-5-dimethylamino-2-phenyl-2H-pyridazin-3-one] | 490 | inhibits PARG in vitro in a dose-dependent manner; also recorded: inhibits PARG in vitro in a dose dependent manner; also recorded: inhibit PARG activity in vitro | 2180 | protect | 5360 | – | –
Nc1c(Cl)cnn(-c2ccccc2)c1=O [compound 5, 4-Amino-5-chloro-2-phenyl-2H-pyridazin-3-one] | – | inactive; also recorded: does not inhibit PARG | – | inactive | – | do not inhibit NAD^+ depletion or PARG activity | do not protect

From patent publication US20090012088A1 (priority 2005, published 2009)
